Columns and labels:
Gelatinase A = molecular target: T1, Gelatinase A (Homo sapiens, UniProt P08253); test: Zymography with densitometry of C8161 conditioned medium, gelatinase A; format: cell-based; details: 50 μg/mL, 24 hr
T1 construct: endogenous in cells; host or cells: C8161
T1 sequence (P08253 110-660): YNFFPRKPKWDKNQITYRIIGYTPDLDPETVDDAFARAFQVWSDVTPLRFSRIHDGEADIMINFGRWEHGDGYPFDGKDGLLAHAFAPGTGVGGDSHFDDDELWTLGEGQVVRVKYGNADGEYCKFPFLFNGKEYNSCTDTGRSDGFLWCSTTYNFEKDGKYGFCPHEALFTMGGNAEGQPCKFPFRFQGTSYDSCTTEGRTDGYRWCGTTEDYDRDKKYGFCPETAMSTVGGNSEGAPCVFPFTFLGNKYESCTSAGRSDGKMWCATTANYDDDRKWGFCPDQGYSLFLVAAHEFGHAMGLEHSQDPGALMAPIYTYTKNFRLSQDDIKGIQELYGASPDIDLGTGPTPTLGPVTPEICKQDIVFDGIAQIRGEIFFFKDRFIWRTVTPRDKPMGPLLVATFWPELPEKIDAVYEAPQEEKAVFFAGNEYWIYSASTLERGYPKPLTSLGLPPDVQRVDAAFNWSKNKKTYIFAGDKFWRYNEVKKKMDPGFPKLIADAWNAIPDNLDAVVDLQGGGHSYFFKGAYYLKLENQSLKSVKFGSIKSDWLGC
Method: (§1) Six hundred thousand (6×10^5) C8161 cells were seeded per well in a 12-well dish coated with a laminin/collagen IV/gelatin matrix in DMEM plus Mito+ and 0.1% gentamicin sulfate. After approximately 1 hr incubation to allow the cells to attach, 50 μg/mL of either doxycycline or one of the other CMTs was added per well and the dish then placed in a 37° C. humidified 5% CO2 incubator. After 24 hr, the supernatants were removed and centrifuged to remove any cells or debris. One volume of Laemmli sample buffer minus reductant was added to two volumes of the medium, and this sample electrophoresed without prior heating or boiling on a 10% SDS-PAGE containing 0.1% gelatin (samples normalized based on the same number of cells per volume of medium per time of incubation). After electrophoresis, the gels were washed with gentle shaking at room temperature for 30 min in 50 mM Tris-HCl (pH 7.5) plus 2.5% TRITON® X100 plus 50 μg/mL of the corresponding CMT used in the original treatment. The gel was then placed in incubation buffer (50 mM Tris-Cl/10 mM CaCl2/150 mM NaCl/0.05% NaN3) also containing 50 μg/mL of the corresponding CMT, and incubated at 37° C. for 20-24 hr. The gels were stained with Coomassie BBR-250, then destained with 10% methanol/10% acetic acid in water until the wash remained clear. A photographic negative of the gel was digitized using a video camera and Snappy Video Snapshot system (Play Inc., Rancho Cordova, Calif.). An integrated density was determined for each of the cleared zones of proteolysis using the software ImagePC8α (freely available from the National Institutes of Health), and the corresponding changes in gelatinolytic activities reported compared to the control samples normalized to a value of 1.0.

C8161 cells [1] = test: C8161 cell proliferation (doubling time); format: cell-based, human; details: 50 μg/mL; for Doubling Time: on plastic, DMSO 22 hr; for increase of doubling time: versus DMSO
Method: Cell Culture and Maintenance: C8161 cells, a human melanoma cell line, were maintained in Dulbecco's modified Eagle's medium (DMEM; […] These cells were routinely screened for Mycoplasma contamination using the GenProbe Rapid Detection System (Fisher Scientific; Chicago, Ill.). Chemically Modified Tetracyclines: Fresh stock solutions of the chemically modified tetracycline compounds (2 mg/mL) were prepared for each experiment by hydrating in 2% dimethyl sulfoxide (DMSO)/water pH 10, then adjusting to pH 7.4 using 1.0 M HCl. […] Sigma Chem. Co.; control) or 50 μg/mL of doxycycline or the other CMTs (three wells on each plate per compound). […] The doubling time for C8161 cells in the presence of each compound was then determined and compared to the DMSO treated cells (control).

E-10 Cells = test: MTS cytotoxicity assay, E-10; details: two days
Method: (§3) A panel of chemically modified tetracycline compounds and doxycycline were tested for cytotoxicity against two carcinomas: COLO 205 (a human colon carcinoma-derived cell line) and the E-10 clone of MDA-MB-231 (a human breast carcinoma-derived cell line). Cytoxicity was measured using a conventional assay for viability with a tetrazolium salt (MTS). Cells were grown in media containing the CMTs at concentrations ranging from 5 μM to 100 μM for two days. The cells were then incubated with the MTS for several hours before removal of the supernatant medium for determination of formazan, which is generated only by the viable cells. Results are expressed as percent cytotoxicity, which is simply the percent decline in measured formazan concentration in the sampled medium.

[2] = Blood levels after oral gavage of adult rats
Excerpt: In the treatment of certain localized cancers, the degree of hydrophilicity of the non-antimicrobial tetracycline compound can be of lesser importance.

[3] = tested on: C8161 human melanoma cells; test: In vitro invasion assay (MICS), laminin/collagen IV/gelatin matrix-coated filter; format: cell-based; details: 3, 20 and 50 μg/mL; for Percent Inhibition of invasive potential: 48 hr
Method: The in vitro invasive potentials of the control (DMSO only) and chemically-modified tetracycline treated cells were measured using a modified Boyden chamber as previously described (Membrane Invasion Culture System, MICS). An intervening barrier consisting of a polycarbonate filter containing 10 μm pores (Osmonics, Livermore, Calif.) coated with a defined matrix of human laminin/collagen IV/gelatin (Sigma, St. Louis, Mo.) was used for these studies. […] Doxycycline or individual CMTs were then added to different wells of the chamber at 3, 20 or 50 μg/mL 2 hr post-seeding and daily during the assay. After 48 hr, the cells were removed from the lower wells and the number of invasive cells was determined and compared to the original number of cells seeded into the upper wells. Where appropriate, data were corrected for proliferation during the period of the in vitro assay.

COLO 205 Cells = test: MTS cytotoxicity assay, COLO 205; details: two days
Method: as §3

Gelatinase B = molecular target: T2, Gelatinase B (Homo sapiens, UniProt P14780); test: Zymography with densitometry of C8161 conditioned medium, gelatinase B; format: cell-based; details: 50 μg/mL, 24 hr
T2 construct: endogenous in cells; host or cells: C8161
Method: as §1

[4] = tested on: DU-145 and TSU-PR1 prostate cancer cell lines; test: Prostate cancer cell viability/proliferation (trypan blue, MTT); format: cell-based, human; details: exposure time not stated (24 hr or 48 hr)
Excerpt: To determine the cytotoxicity of CMTs on prostate tumor cell lines, TSU-PR1 cells (and cells of other tumor cell lines) were exposed to various CMTs or to doxycycline for 24 hr or 48 hr in a complete medium. Cell viability (percent of live cells) was estimated by counting the cells following trypan blue staining. Cellular viability was also estimated by the tetrazolium dye reduction assay (MTT assay) (Lokeshwar et al. 1995b). Due to the aggressive proliferative capacity of cancer cells, it is assumed that viable cells are actively proliferating. Therefore, the measurement of viability was used as an estimate of proliferation. Results are expressed as Mean±SEM from three separate experiments.

C8161 cells [5] = test: In vivo metastasis assay, C8161 cells i.v. in SCID mice; details: for Number of Lung Metastases/Mouse: Average ± SEM, control 231 ± 49
Method: Immunosuppressed mice (athymic nude/nude SCID females from Harlan Sprague Dawley) were housed in autoclaved cages with microisolator tops, and all manipulations of the animals were done in a laminar flow hood after wiping down both the hood, gloves and cages with ABQ sterilant. The mice were fed sterile Pico Lab Chow (Purina) and autoclaved St. Louis tap water. […] The compounds and control (sterile water plus 2% carboxymethyl cellulose) were kept stored at −80° C. wrapped in aluminum foil to prevent any light induced changes, and each day's supply was thawed just prior to use. Four compounds were tested for their effects on the metastatic potential of C8161 cells injected intravenously via the tail vein: […] The concentration of the compounds in the vials used to give the 100 mg/kg doses were 2.5 times that in the 40 mg/kg dose so that approximately the same volume was used in both cases, approximately 0.5 mL/animal. The experiments started with nine animals per group at day −4. On day zero, 2×10^5 C8161 cells in cold Hank's Balanced Salt Solution (HBSS) were injected intravenously via tail vein inoculation. The experiment was continued for an additional 24 days, at which time the animals were sacrificed and their lungs removed and fixed in a solution of Bouins/formaldehyde (5 parts:1 part). Tumors were quantitated on the entire surface of the lungs by rotating the lungs and counting the tumors on each lobe using a 6× magnifying glass. Statistical analysis was performed using the statistical package of Microsoft's Excel spreadsheet software.

TSU-PR1 cells = test: Matrigel invasion assay (Boyden chamber, MTT), TSU-PR1; format: cell-based, human; details: TSU-PR1, 48 hr
Method: (§2) In this method, 4×10^5 tumor cells were plated on the top chamber of the Boyden chemotaxis assay chambers (Costar Transwell plates). The bottom side of the chamber was a 12 μm-pore polycarbonate filter layered with 0.5 mm thick layer of Matrigel. The bottom well contained a chemoattractant, a serum-free culture-conditioned medium from FHS 733 cells, a line of human fetal lung fibroblasts (ATCC No. HTB-157). Cancer cells (4×10^5) were plated in the top wells of the plates. Doxycycline or CMTs were diluted in a serum-free medium to 5 μg/mL, and were added to both top and bottom chambers. […] After 48 hr incubation, MTT was added to both the top and bottom wells (0.5 mg/mL), and incubation was continued for 4 hr. Wells were then emptied, and the cells from the undersides of the filter were pooled with those in the bottom wells with a filter tip. The reduced MTT (formazan) from top and bottom wells was solubilized with DMSO overnight, and absorbance (O.D.) at 515 nm was measured. The ratio of the O.D. from the bottom wells to that of the total (i.e., O.D. of top plus bottom wells) was taken as the invasive potential. […] The MTT assay procedure also normalizes the coincident inhibition due to the cytotoxic effects of the agents under investigation. Results presented are from three independent experiments.

Dunning MAT LyLu cells [6] = test: Cytotoxic effect on MAT LyLu cells (trypan blue); format: cell-based, rat; details: 24 hr or 48 hr exposure
Method: Cell viability was estimated by trypan blue staining following exposure to the drugs. The results of these studies are summarized in FIG. 4A (24 hours) and FIG. 4B (48 hr). Data are presented as Mean±SEM from three separate experiments.

Dunning MAT LyLu cells [7] = test: Matrigel invasion assay (Boyden chamber, MTT), MAT LyLu; format: cell-based, rat; details: MAT LyLu, 5 μg/mL, 48 hr
Method: as §2

[8] = Solubility in aqueous systems; format: physicochemical

T2 sequence (P14780 94-707): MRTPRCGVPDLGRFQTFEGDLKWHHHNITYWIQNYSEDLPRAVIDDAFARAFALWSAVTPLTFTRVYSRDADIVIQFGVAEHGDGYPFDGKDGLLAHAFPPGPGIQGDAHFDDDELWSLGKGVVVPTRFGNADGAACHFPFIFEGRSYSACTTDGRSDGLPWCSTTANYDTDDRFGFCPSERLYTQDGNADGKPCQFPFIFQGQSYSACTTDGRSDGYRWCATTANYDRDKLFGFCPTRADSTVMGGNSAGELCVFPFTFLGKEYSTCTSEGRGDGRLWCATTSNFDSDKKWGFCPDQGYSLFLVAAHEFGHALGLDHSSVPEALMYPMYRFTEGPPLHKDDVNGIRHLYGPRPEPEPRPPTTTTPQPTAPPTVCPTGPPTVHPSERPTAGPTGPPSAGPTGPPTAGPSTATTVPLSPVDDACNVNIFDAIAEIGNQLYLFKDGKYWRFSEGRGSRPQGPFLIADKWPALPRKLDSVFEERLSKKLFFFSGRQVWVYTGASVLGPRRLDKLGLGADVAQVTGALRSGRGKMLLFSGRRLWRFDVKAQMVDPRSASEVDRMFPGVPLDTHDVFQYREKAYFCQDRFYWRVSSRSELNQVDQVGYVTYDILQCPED

Row | SMILES | Gelatinase A, integrated density normalized to control 1.00 (Gelatinase A) | Doubling Time (C8161 cells [1]) [h] | increase of doubling time (C8161 cells [1]) | percent cytotoxicity (E-10 Cells; 5 μM) [%] | percent cytotoxicity (E-10 Cells; 10 μM) [%] | percent cytotoxicity (E-10 Cells; 20 μM) [%] | percent cytotoxicity (E-10 Cells; 50 μM) [%] | percent cytotoxicity (E-10 Cells; 100 μM) [%] | Type of Inhibition [3] | Percent Inhibition of invasive potential [3] | percent cytotoxicity (COLO 205 Cells; 5 μM) [%] | percent cytotoxicity (COLO 205 Cells; 10 μM) [%] | percent cytotoxicity (COLO 205 Cells; 20 μM) [%] | percent cytotoxicity (COLO 205 Cells; 50 μM) [%] | percent cytotoxicity (COLO 205 Cells; 100 μM) [%] | Gelatinase B, integrated density normalized to control 1.00 (Gelatinase B) | 50% inhibition dose (IC50), cell proliferation [4] [µg/mL] | also measured
1 | CC1(O)c2cccc(O)c2C(=O)C2=C(O)C3(O)C(=O)C(C(N)=O)=C(O)C(O)C3CC21 (stereo not drawn) [CMT-6, 4-hydroxy-4-de(dimethylamino)tetracycline] | 0.07 | 24 | approximately 9% | 0 | 6 | 3 | 7.6 | 16.7 | dose dependent | 8-50% | 1.7 | 0 | 0 | 0 | 22.2 | 0.51 | 120 | blood levels ([2]; adult rats, oral gavage): no detectable blood levels
2 | CC1(O)c2cccc(O)c2C(=O)C2=C(O)C3C(=O)C(C(N)=O)=C(O)CC3CC21 (stereo not drawn) [CMT-7, 4-de(dimethylamino)-12α-deoxytetracycline] | 0.17 | 24 | approximately 9% | 0 | 0 | 0 | 0 | 8.3 | non | 15-55% | 0 | 0 | 0 | 0 | 29.4 | 1.22 |  | Number of Lung Metastases/Mouse (C8161 cells [5]; 40 mg/kg daily intragastric): 136 ± 107; Number of Lung Metastases/Mouse (C8161 cells [5]; 100 mg/kg daily intragastric): 166 ± 101; effect on number of lung metastases (significance) (C8161 cells [5]; at either dosage, p>0.05): did not significantly reduce the number of lung metastases; 50% inhibitory dose (IC50), Matrigel invasion (TSU-PR1 cells): > 100 µg/mL
3 | CN(C)C1C(=O)C(C#N)=C(O)C2(O)C(=O)C3=C(O)c4c(O)cccc4C(C)(O)C3CC12 (stereo not drawn) [CMT-2, tetracyclinonitrile] | 0.89 |  |  | 1.5 | 3.8 | 0.8 | 0 | 2.3 | non-dose | ˜10% | 2.7 | 4.5 | 0 | 7 | 16.3 | 1.51 | 5.7 | inhibition of cell proliferation (rank among tested drugs) (Dunning MAT LyLu cells [6]): most effective inhibitors of cell proliferation; inhibition of invasive/metastatic potential (Matrigel invasion) (Dunning MAT LyLu cells [7]): equally inhibited; solubility in aqueous systems [8]: low solubility in aqueous systems; blood levels ([2]; rat, in vivo, po): no detectable blood levels
